# Reference: ChEMBL document CHEMBL1201862, “PubChem BioAssay data set” (2004)
#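 Interpolation was linear, between the two tested concentrations surrounding the appropriate level; five concentrations were tested over 48 hours in 96-well plates. GI50: concentration for 50% inhibition of growth.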 Calls of active or inactive are those of the source. Cut-off read from the data, not from the text of the source: active = GI50 up to about 1.1 µM and inactive = higher.
# Columns and labels:
# Test in all cases: inhibition of tumour cell growth, NCI panel, 48 h
# 786-0 = test system: 786-0
# A498 = test system: A498
# A549 = test system: A549
# ACHN = test system: ACHN
# CAKI-1 = test system: CAKI-1
# CCRF-CEM = test system: CCRF-CEM
# COLO 205 = test system: COLO 205
# DU-145 = test system: DU-145
# EKVX = test system: EKVX
# HCC 2998 = test system: HCC 2998
# HCT-116 = test system: HCT-116
# HCT-15 = test system: HCT-15
# HL-60 = test system: HL-60
# HOP-62 = test system: HOP-62
# HOP-92 = test system: HOP-92
# HT-29 = test system: HT-29
# Hs-578T = test system: Hs-578T
# IGROV-1 = test system: IGROV-1
# K562 = test system: K562
# KM12 = test system: KM12
# LOX IMVI = test system: LOX IMVI
# M14 = test system: M14
# MCF7 = test system: MCF7
# MDA-MB-231 = test system: MDA-MB-231
# MDA-MB-435 = test system: MDA-MB-435
# MDA-N = test system: MDA-N
# MOLT-4 = test system: MOLT-4
# Malme-3M = test system: Malme-3M
# NCI-H226 = test system: NCI-H226
# NCI-H23 = test system: NCI-H23
# NCI-H460 = test system: NCI-H460
# NCI-H522 = test system: NCI-H522
# NCI/ADR-RES = test system: NCI/ADR-RES
# OVCAR-4 = test system: OVCAR-4
# OVCAR-5 = test system: OVCAR-5
# OVCAR-8 = test system: OVCAR-8
# PC-3 = test system: PC-3
# RPMI-8226 = test system: RPMI-8226
# RXF 393 = test system: RXF 393
# SF-268 = test system: SF-268
# SF-539 = test system: SF-539
# SK-MEL-28 = test system: SK-MEL-28
# SK-MEL-2 = test system: SK-MEL-2
# SK-MEL-5 = test system: SK-MEL-5
# SN12C = test system: SN12C
# SNB-19 = test system: SNB-19
# SNB-75 = test system: SNB-75
# SR = test system: SR
# SW-620 = test system: SW-620
# T47D = test system: T47D
# U-251 = test system: U-251
# UACC-62 = test system: UACC-62
# UO-31 = test system: UO-31
# BT-549 = test system: BT-549
# OVCAR-3 = test system: OVCAR-3
# SF-295 = test system: SF-295
# SK-OV-3 = test system: SK-OV-3
# TK-10 = test system: TK-10
# UACC-257 = test system: UACC-257
structure (smiles),measurement,setting,value
CC(=O)C1=C(C)NC(=C(C#N)C#N)C(C#N)=C1,GI50,786-0,> 100 µM (inactive)
same,GI50,A498,> 100 µM (inactive)
same,GI50,A549,> 100 µM (inactive)
same,GI50,ACHN,> 100 µM (inactive)
same,GI50,CAKI-1,> 100 µM (inactive)
same,GI50,CCRF-CEM,> 100 µM (inactive)
same,GI50,COLO 205,> 100 µM (inactive)
same,GI50,DU-145,> 100 µM (inactive)
same,GI50,EKVX,> 100 µM (inactive)
same,GI50,HCC 2998,> 100 µM (inactive)
same,GI50,HCT-116,> 100 µM (inactive)
same,GI50,HCT-15,> 100 µM
same,GI50,HL-60,> 100 µM (inactive)
same,GI50,HOP-62,> 100 µM (inactive)
same,GI50,HOP-92,> 100 µM (inactive)
same,GI50,HT-29,> 100 µM (inactive)
same,GI50,Hs-578T,> 100 µM (inactive)
same,GI50,IGROV-1,> 100 µM (inactive)
same,GI50,K562,> 100 µM (inactive)
same,GI50,KM12,> 100 µM (inactive)
same,GI50,LOX IMVI,> 100 µM (inactive)
same,GI50,M14,> 100 µM (inactive)
same,GI50,MCF7,> 100 µM (inactive)
same,GI50,MDA-MB-231,> 100 µM (inactive)
same,GI50,MDA-MB-435,> 100 µM (inactive)
same,GI50,MDA-N,> 100 µM (inactive)
same,GI50,MOLT-4,> 100 µM (inactive)
same,GI50,Malme-3M,> 100 µM (inactive)
same,GI50,NCI-H226,> 100 µM (inactive)
same,GI50,NCI-H23,> 100 µM (inactive)
same,GI50,NCI-H460,> 100 µM (inactive)
same,GI50,NCI-H522,> 100 µM (inactive)
same,GI50,NCI/ADR-RES,> 100 µM (inactive)
same,GI50,OVCAR-4,3.81 µM (inactive)
same,GI50,OVCAR-5,> 100 µM (inactive)
same,GI50,OVCAR-8,> 100 µM (inactive)
same,GI50,PC-3,> 100 µM (inactive)
same,GI50,RPMI-8226,> 100 µM (inactive)
same,GI50,RXF 393,> 100 µM (inactive)
same,GI50,SF-268,> 100 µM (inactive)
same,GI50,SF-539,> 100 µM (inactive)
same,GI50,SK-MEL-28,> 100 µM (inactive)
same,GI50,SK-MEL-2,> 100 µM (inactive)
same,GI50,SK-MEL-5,> 100 µM (inactive)
same,GI50,SN12C,> 100 µM (inactive)
same,GI50,SNB-19,> 100 µM (inactive)
same,GI50,SNB-75,> 100 µM (inactive)
same,GI50,SR,> 100 µM (inactive)
same,GI50,SW-620,> 100 µM (inactive)
same,GI50,T47D,> 100 µM (inactive)
same,GI50,U-251,> 100 µM (inactive)
same,GI50,UACC-62,> 100 µM (inactive)
same,GI50,UO-31,> 100 µM (inactive)
CC(C)CC(=O)NC(C(=O)NC(C(=O)NC(CC(C)C)C(O)CC(=O)NC(C)C(=O)NC(CC(C)C)C(O)CC(=O)O)C(C)C)C(C)C (stereo not drawn),GI50,786-0,> 100 µM (inactive)
same,GI50,A498,> 100 µM (inactive)
same,GI50,A549,> 100 µM (inactive)
same,GI50,ACHN,> 100 µM (inactive)
same,GI50,BT-549,22.1 µM (inactive)
same,GI50,CAKI-1,> 100 µM (inactive)
same,GI50,CCRF-CEM,> 100 µM (inactive)
same,GI50,COLO 205,> 100 µM (inactive)
same,GI50,DU-145,> 100 µM (inactive)
same,GI50,EKVX,> 100 µM (inactive)
same,GI50,HCC 2998,> 100 µM (inactive)
same,GI50,HCT-116,> 100 µM (inactive)
same,GI50,HCT-15,> 100 µM
same,GI50,HOP-62,> 100 µM (inactive)
same,GI50,HOP-92,> 100 µM (inactive)
same,GI50,HT-29,> 100 µM (inactive)
same,GI50,IGROV-1,> 100 µM (inactive)
same,GI50,K562,> 100 µM (inactive)
same,GI50,KM12,> 100 µM (inactive)
same,GI50,LOX IMVI,> 100 µM (inactive)
same,GI50,M14,> 100 µM (inactive)
same,GI50,MCF7,> 100 µM (inactive)
same,GI50,MDA-MB-231,> 100 µM (inactive)
same,GI50,MDA-MB-435,> 100 µM (inactive)
same,GI50,MDA-N,> 100 µM (inactive)
same,GI50,MOLT-4,> 100 µM (inactive)
same,GI50,Malme-3M,> 100 µM (inactive)
same,GI50,NCI-H226,0.436 µM (active)
same,GI50,NCI-H23,> 100 µM (inactive)
same,GI50,NCI-H460,> 100 µM (inactive)
same,GI50,NCI-H522,> 100 µM (inactive)
same,GI50,NCI/ADR-RES,> 100 µM (inactive)
same,GI50,OVCAR-3,> 100 µM (inactive)
same,GI50,OVCAR-4,> 100 µM (inactive)
same,GI50,OVCAR-5,> 100 µM (inactive)
same,GI50,OVCAR-8,> 100 µM (inactive)
same,GI50,PC-3,> 100 µM (inactive)
same,GI50,RPMI-8226,> 100 µM (inactive)
same,GI50,SF-268,> 100 µM (inactive)
same,GI50,SF-295,> 100 µM (inactive)
same,GI50,SF-539,> 100 µM (inactive)
same,GI50,SK-MEL-28,> 100 µM (inactive)
same,GI50,SK-MEL-2,> 100 µM (inactive)
same,GI50,SK-MEL-5,> 100 µM (inactive)
same,GI50,SK-OV-3,> 100 µM (inactive)
same,GI50,SN12C,> 100 µM (inactive)
same,GI50,SNB-19,> 100 µM (inactive)
same,GI50,SNB-75,> 100 µM (inactive)
same,GI50,SR,> 100 µM (inactive)
same,GI50,SW-620,> 100 µM (inactive)
same,GI50,TK-10,> 100 µM (inactive)
same,GI50,U-251,> 100 µM (inactive)
same,GI50,UACC-257,> 100 µM (inactive)
same,GI50,UACC-62,> 100 µM (inactive)
same,GI50,UO-31,> 100 µM (inactive)
